Results from publication PMC3337405 (Cancer Chemotherapy and Pharmacology, 2012).

What was measured:
healthy volunteers [1] = assay: Thorough QT/QTc study: QTcF change from baseline on day 3 (12-lead ECG); format: in vivo, human; conditions: for QTcF change from time-matched baseline, Difference (Midostaurin – Placebo) / Upper bound of the one-sided 95% CI of Difference (Midostaurin – Placebo) in QTcF change: day 3; for QTcF change on day 3 from time-matched baseline: midostaurin arm
Text: This study was a phase I, randomized, double-blind, placebo- and active-controlled, 3-way, parallel-group study conducted at a single center in the United States and approved by the Arkansas Research Medical Testing, LLC, Institutional Review Board. The design followed the recommendations of the International Conference on Harmonisation of Technical Requirements for Registration of Pharmaceuticals for Human Use (ICH) E14 guideline on “The Clinical Evaluation of QT/QTc Interval Prolongation and Proarrhythmic Potential for Non-Antiarrhythmic Drugs” [19]. As such, the trial included a concurrent positive control group and addressed intrinsic variability by conducting multiple ECGs at baseline and during the study. The study was conducted according to the ethical principles of the Declaration of Helsinki, and written informed consent was obtained from each subject during screening.
The treatment regimen was selected to achieve maximal plasma exposure for QTc evaluation while minimizing the risks of excessive or prolonged exposure in healthy volunteers.
The baseline comparison was from day −1 to day 3 at matched time points.
The following hypothesis was tested to confirm that the study had sufficient assay sensitivity: [drawing 3] [drawing 4] where μmoxi(t) was the mean QTcF change from baseline observed following moxifloxacin 400 mg at time point t. If the null hypothesis was rejected, the study had sufficient sensitivity. The Simes method was used for the protection of an experiment-wise 5% type I error [22, 23]. With the Simes method, the original P values corresponding to 0.5, 1, 2, 3, and 4 h post baseline are ordered increasingly, that is, P 1 ≤ P 2 ≤ P 3 ≤ P 4 ≤ P 5. After the Simes correction, the P values were 5P 1, 5P 2/2, 5P 3/3, 5P 4/4, and P 5 respectively. If any of the 5 adjusted P values were <.05, assay sensitivity was claimed. Only the participants who completed all scheduled doses of study medication from day 1 to day 3 and had at least 1 ECG on day −1 (baseline) and at least 1 ECG on day 3 (time-matched day 3 data for the time-matched analysis) were included in the assay sensitivity test.
Electrocardiogram measurements at each time point were calculated as an average of 3 separate ECG extractions or replicates. (Each extraction was the mean of 3 beats.) If fewer than 3 measurements were available, the available samples were averaged (i.e., a minimum of 1 measure was required). For each subject, the time-matched baseline value was subtracted from the QT/QTc intervals to determine the change from baseline in QT/QTc intervals for that subject. The 2 null hypotheses described above were tested in a linear mixed-effect model with a compound symmetry covariance structure. The model included the baseline measure as covariate and treatment, time, and the treatment-by-time interaction as fixed effects, where time was a categorical variable and subject was a random effect.
The time-matched analysis was conducted on the QTcF change from the time-matched baseline as recommended by the ICH E14 guideline. Although modeling change from the time-matched baseline was the primary analysis, the change from the time-averaged baseline was also analyzed using the same model. For the averaged baseline, each triplicate ECG collection was averaged first, and then the averaged baseline was calculated based on all the averaged triplicate ECG and unscheduled ECGs.
(§1) Standard triplicate 12-lead ECGs were obtained at 9 time points over 24 h at baseline on day 3 and at 2 time points on day 1. Electrocardiogram analysis was performed at a blinded central reading facility (ERT, East Bridgewater, NJ) in digital format, with paper tracings obtained and archived immediately on site. Vital signs were assessed daily. Clinical laboratory parameters were assessed at baseline and at the end of study. Self-reported adverse events were continuously recorded from the first study treatment (placebo, day −1) through the end of study on day 4.

healthy volunteers [2] = assay: Outlier analysis of QTc and other ECG parameters, ECG morphology; format: in vivo, human; conditions: for QTcB >30 ms, time-matched change from baseline, participants: text: 30- to 60-ms category
Method: Outlier analysis for QTc was also exploratory because this study was not powered to detect individuals with genetic sensitivity to potential QT-prolonging drugs. The nonspecific outlier criterion was a change from baseline in QTc interval of 30–60 ms.
as §1

healthy volunteers [3] = assay: Adverse events and discontinuations; format: in vivo, human
Method: as §1, with “Electrocardiogram” for “Standard triplicate 12-lead ECGs were obtained at 9 time points over 24 h at baseline on day 3 and at 2 time points on day 1. Electrocardiogram”

[4] = tested on: patients with ASM, mast cell leukemia, or systemic mastocytosis; conditions: 100 mg twice daily; 26 patients; preliminary results; cited from earlier work
[5] = Plasma pharmacokinetics, noncompartmental analysis; conditions: human, plasma, 75 mg; for Cmax: mean (SD)
Method: Blood samples for PK analysis were collected predose and 0.5, 1, 2, 3, 4, 8, 12, and 24 h post dose on days 1 and 3 at the same time as ECG assessments. […] Noncompartmental analysis (WinNonlin™ version 5.2, Pharsight, Sunnyvale, California) was performed to determine the following PK parameters: C max, T max, minimum (trough) plasma concentration over a dosing interval (C min), and AUC calculated using a trapezoidal method. For moxifloxacin, the AUC from time 0 to the last measurable concentration sampling time was calculated (AUC0–tlast).

[6] = midostaurin, 24 h post dose on day 3

## CO[C@@H]1[C@H](N(C)C(=O)c2ccccc2)C[C@H]2O[C@]1(C)n1c3ccccc3c3c4c(c5c6ccccc6n2c5c31)C(=O)NC4 [Midostaurin, N-benzoylstaurosporin]
Healthy volunteers [1]; 0 h
  QTcF change from time-matched baseline, Difference (Midostaurin – Placebo): -2.7 ms
  Upper bound of the one-sided 95% CI of Difference (Midostaurin – Placebo) in QTcF change: 1.3 ms
  QTcF change on day 3 from time-matched baseline: -3.2 ms
Healthy volunteers [1]; 0.5 h
  QTcF change from time-matched baseline, Difference (Midostaurin – Placebo): -1.9 ms
  Upper bound of the one-sided 95% CI of Difference (Midostaurin – Placebo) in QTcF change: 2.1 ms
Healthy volunteers [1]; 1 h
  QTcF change from time-matched baseline, Difference (Midostaurin – Placebo): -3.7 ms
  Upper bound of the one-sided 95% CI of Difference (Midostaurin – Placebo) in QTcF change: 0.3 ms
Healthy volunteers [1]; 2 h
  QTcF change from time-matched baseline, Difference (Midostaurin – Placebo): -5.1 ms
  Upper bound of the one-sided 95% CI of Difference (Midostaurin – Placebo) in QTcF change: -1.1 ms
Healthy volunteers [1]; 3 h
  QTcF change from time-matched baseline, Difference (Midostaurin – Placebo): -3.9 ms
  Upper bound of the one-sided 95% CI of Difference (Midostaurin – Placebo) in QTcF change: 0.1 ms
Healthy volunteers [1]; 4 h
  QTcF change from time-matched baseline, Difference (Midostaurin – Placebo): -3.4 ms
  Upper bound of the one-sided 95% CI of Difference (Midostaurin – Placebo) in QTcF change: 0.6 ms
Healthy volunteers [1]; 8 h
  QTcF change from time-matched baseline, Difference (Midostaurin – Placebo): -0.7 ms
  Upper bound of the one-sided 95% CI of Difference (Midostaurin – Placebo) in QTcF change: 3.3 ms
Healthy volunteers [1]; 12 h
  QTcF change from time-matched baseline, Difference (Midostaurin – Placebo): -0.6 ms
  Upper bound of the one-sided 95% CI of Difference (Midostaurin – Placebo) in QTcF change: 3.4 ms
Healthy volunteers [1]; 24 h
  QTcF change from time-matched baseline, Difference (Midostaurin – Placebo): 0.7 ms
  Upper bound of the one-sided 95% CI of Difference (Midostaurin – Placebo) in QTcF change: 4.7 ms
Healthy volunteers [1]; midostaurin 75 mg twice daily days 1-2, once day 3, 24 h post dose on day 3, ECG set
  maximum mean QTcF change from time-matched baseline compared with placebo: 0.7 ms
Healthy volunteers [1]; 0.5 h after administration
  QTcF change on day 3 from time-matched baseline: -5.2 ms
Healthy volunteers [1]; 1 h after administration
  QTcF change on day 3 from time-matched baseline: -6.3 ms
Healthy volunteers [1]; 2 h after administration
  QTcF change on day 3 from time-matched baseline: -6.2 ms
Healthy volunteers [1]; 3 h after administration
  QTcF change on day 3 from time-matched baseline: -5.2 ms
Healthy volunteers [1]; 4 h after administration
  QTcF change on day 3 from time-matched baseline: -6.4 ms
Healthy volunteers [1]; 8 h after administration
  QTcF change on day 3 from time-matched baseline: -1.9 ms
Healthy volunteers [1]; 12 h after administration
  QTcF change on day 3 from time-matched baseline: -3.1 ms
Healthy volunteers [1]; 24 h after administration
  QTcF change on day 3 from time-matched baseline: -3.9 ms
Healthy volunteers [1]; [6]
  highest upper bound of 95% CI, QTcF change from time-averaged baseline compared with placebo: 4.9 ms
  maximum mean QTcF change from time-averaged baseline compared with placebo: 2.5 ms
Healthy volunteers [2]; 12-lead ECG
  new U-wave abnormalities: No new U-wave abnormalities
  new post baseline T-wave abnormalities: Three
Healthy volunteers [2]; midostaurin 75 mg twice daily
  effects on heart rate, atrioventricular conduction, cardiac depolarization (PR and QRS interval durations): no effects on heart rate, atrioventricular conduction, or cardiac depolarization
Healthy volunteers [2]; safety set
  PR increase ≥25% and resultant PR >200 ms, participants: 0 no. (%)
  QRS increase ≥25% and resultant QRS >100 ms, participants: 0 no. (%)
  QTcB >60 ms, time-matched change from baseline, participants: 0 no. (%)
  QTcF >30 ms, time-matched change from baseline, participants: 0 no. (%)
  QTcF >60 ms, time-matched change from baseline, participants: 0 no. (%)
  QTcI >30 ms, time-matched change from baseline, participants: 0 no. (%)
  QTcI >60 ms, time-matched change from baseline, participants: 0 no. (%)
  RR decrease ≥25% and resultant RR <600 ms, participants: 1 (1.3) no. (%)
  RR increase ≥25% and resultant RR >1,200 ms, participants: 1 (1.3) no. (%)
  QTcB >30 ms, time-matched change from baseline, participants: 1 (1.3) no. (%)
Healthy volunteers [2]; safety set, post baseline
  QTcF New >450 ms, participants: 0 no. (%)
Healthy volunteers [2]; safety set, post baseline, text: between 450 and 480 ms
  QTcB New >450 ms, participants: 1 (1.3%) no. (%)
Healthy volunteers [2]; safety set, listed as midostaurin
  QTcB >30 ms, time-matched change from baseline, participants: 1 (1.3%) no. (%)
Healthy volunteers [3]; human, in vivo
  Abdominal pain: 4 (5.1) no. (%)
  Arthralgia: 0 (0.0) no. (%)
  Diarrhea: 25 (31.6) no. (%)
  Discontinued, main cause Adverse event(s): 19 (23.8) no. (%)
  Dizziness: 0 (0.0) no. (%)
  Dry mouth: 0 (0.0) no. (%)
  Dysmenorrhea: 1 (1.3) no. (%)
  Dyspepsia: 1 (1.3) no. (%)
  Eructation: 3 (3.8) no. (%)
  Flatulence: 3 (3.8) no. (%)
  Flushing: 2 (2.5) no. (%)
  Headache: 5 (6.3) no. (%)
  Hiccups: 2 (2.5) no. (%)
  Hot flushes: 1 (1.3) no. (%)
  Nausea: 30 (38.0) no. (%)
  Pollakiuria: 0 (0.0) no. (%)
  Rash: 0 (0.0) no. (%)
  Salivary hypersecretion: 2 (2.5) no. (%)
  Sexually transmitted disease: 1 (1.3) no. (%)
  Tachycardia: 2 (2.5) no. (%)
  Vomiting: 19 (24.1) no. (%)
Healthy volunteers [3]; human, in vivo, 4 day
  Participants with adverse events: 43 (54.4) no. (%)
Healthy volunteers [3]; midostaurin arm, vomiting within 4 h of dosing
  discontinuations because of gastrointestinal events of vomiting: 17 n
Healthy volunteers [3]; randomized set
  Discontinued, main cause Adverse event(s): 19 no. (%)
  Discontinued, main cause Death: 0 (0.0) no. (%)
[4]
  overall response rate: 69%
[5]; oral, time of peak concentrations post dose, midostaurin dosing, days 1 and 3
  Tmax: 1 h
[5]; po, Day 1 (single dose), midostaurin 75 mg oral
  Cmax: 2140 ng/mL
[5]; po, Day 3 (twice daily), midostaurin 75 mg oral
  Cmax: 2270 ng/mL
[5]; po, Tmax, median (range), Day 1 (single dose), midostaurin 75 mg oral
  Tmax: 1 h
[5]; po, Tmax, median (range), Day 3 (twice daily), midostaurin 75 mg oral
  Tmax: 1.1 h
